Values quoted from earlier work as cited in patent US12163116B2, “Automated bioreactor with foam collector” (OHIO STATE INNOVATION FOUNDATION, priority 2018, dated 2024).

How the values were obtained:
[1] = system: L. innocua; conditions: against L. innocua; taught by prior art
[2] = system: Gram-positive bacteria including species of Listeria, Clostridium, Lactobacillus, Staphylococcus, Bacillus
[3] = compared to commercially available lantibiotics such as nisin

With paenibacillin as the substance, how does the minimum inhibitory concentration [1] read?
The minimum inhibitory concentration was 4 µg/mL.

What about the antimicrobial potency [2] of the same substance?
The antimicrobial potency was “potent against Gram-positive bacteria”.

What about the water solubility of the same substance?
Its water solubility is “highly water soluble”.

What about the “temperature and pH stability” value [3] of the same substance?
The value was “relatively high temperature and pH stability”.
